{"source": "patent US10105405B2", "about": "“Compositions and methods for enhancing brain function using acetyl-L-carnitine, huperzine A and ginkgo biloba” (priority 2006, dated 2018)", "origin": "cited, not measured here", "tested_on": "aged subjects, patients with benign senescent forgetfulness, Alzheimer's disease (AD) and vascular dementia (VD)", "data": [{"smiles": "C/C=C1\\[C@H]2C=C(C)C[C@]1(N)c1ccc(=O)[nH]c1C2", "note": "[Huperzine A]", "values": [{"measurement": "memory deficits", "setting": "clinical trials in China", "value": "significantly relieves memory deficits"}, {"measurement": "peripheral cholinergic side effects", "setting": "compared with other AChEIs in use", "value": "minimal peripheral cholinergic side effects"}]}]}
